Key:
[1] = Cytotoxic effect, WST-1 cell proliferation assay in AH1R cells; format: cell-based; details: human
Description: (§3) Assay systems using OR6 cells (HCV-O strain), 1B-4R cells (HCV-1B-4 strain), and AH1R cells (HCV-AH1R strain) as HuH-7 cell-derived full-length HCV-RNA-replicating cells, and ORL8 cells (HCV-O strain), ORL11 cells (HCV-O strain), 1B-4RL cells (HCV-1B-4 strain), and KAH5RL cells (HCV-KAH5 strain) as Li23 cell-derived full-length HCV-RNA-replicating cells were used for the quantitative analysis of anti-HCV activity and evaluation of a cytotoxic effect in the present invention. […] In addition, all the HCV strains belong to genotype 1b.
The WST-1 cell proliferation assay was performed 72 hours after the culture.

[2] = test system: HCV RNA in ORL8 cells; assay: Production of cured cells from ORL8 cells by treatment with N-89; format: cell-based, HCV genotype 1b
Description: A drug treatment method for the cells was performed according to a method with IFN-γ (1,000 IU/mL) (Abe K et al., Virus Res. 125:88-97, 2007) generally used in the production of cured cells by the inventors of the present invention.
(§1) 4×10^5 ORL8 cells were plated onto a 10-cm plate (10 mL of medium in the absence of G418) (Day 1), and N-89 was added so as to achieve a final concentration of 1 μM the next day (Day 2). After 3 days (Day 5), the cells were diluted 10-fold, and N-89 was added again the next day. This operation was repeated an additional four times (N-89 was added six times in total: Days 2, 6, 10, 14, 18, and 22). At the time of the dilution of the cells (Day 13), which was performed 3 days after the third addition of N-89, the cells were divided into two plates with medium in the presence of G418 (neomycin) (0.3 mg/mL) and medium in the absence of G418. Then, N-89 was added three times, a plurality of plates were prepared at the time of the final dilution of the cells, and finally, one of the plates for each of the media was subjected to CBB staining (Day 26).
FIG. 14 show the results. […] The ORL8 cells cultured in the medium in the presence of G418 were all killed, whereas the ORL8 cells cultured in the absence of G418 became confluent at a normal proliferation rate. In order to confirm that HCV RNA was eliminated from the cells, Western blot analysis was performed using an anti-HCV core antibody and an anti-HCV NS5B antibody (FIG. 14c). The ORL8 cells were used as a positive control.

[3] = test system: HCV RNA in OL8 cells (HCV-O strain-derived full-length HCV-genome-replicating cells); assay: Production of cured cells from OL8 cells subcultured for 3 years; format: cell-based; details: treated similarly with N-89
Description: as §1
(§2) Further, cells obtained by subculturing HCV-O strain-derived full-length HCV-genome-replicating cells (OL8 cells and OL11 cells) (Kato et al., Virus Res. 146:41-50, 2009) for 3 years (the cells had acquired the status of genetic diversity (called quasispecies) owing to various mutations in an HCV genome caused by the sustained replication of the HCV genome) were used and similarly treated with N-89.

[4] = test system: HCV RNA in OL11 cells (HCV-O strain-derived full-length HCV-genome-replicating cells); assay: Production of cured cells from OL11 cells subcultured for 3 years; format: cell-based; details: treated similarly with N-89
Description: as §1, §2

[5] = test system: HCV-RNA replication in ORL8 cells; assay: Influence of oxidizing agents KNO3 and NaClO4 on anti-HCV activity in ORL8 cells; format: cell-based, HCV genotype 1b; details: N-89 0.5 μM + KNO3 or NaClO4 10 μM, 72 hours
Description: The effects of addition of KNO3 and NaClO4 on the anti-HCV activity of N-89 were examined using ORL8 cells.
N-89 and KNO3 or NaClO4 were simultaneously added so that the concentrations of N-89 and KNO3 or NaClO4 were set to 0.5 μM and 10 μM, respectively. The luciferase activity was measured 72 hours after the culture.

[6] = test system: OR6 cells; assay: Cytotoxic effect, WST-1 cell proliferation assay in OR6 cells; details: OR6 cells, 72 hours, WST-1
Description: Assay systems using OR6 cells (HCV-O strain), 1B-4R cells (HCV-1B-4 strain), and AH1R cells (HCV-AH1R strain) as HuH-7 cell-derived full-length HCV-RNA-replicating cells, and ORL8 cells (HCV-O strain), ORL11 cells (HCV-O strain), 1B-4RL cells (HCV-1B-4 strain), and KAH5RL cells (HCV-KAH5 strain) as Li23 cell-derived full-length HCV-RNA-replicating cells were used for the quantitative analysis of anti-HCV activity and evaluation of a cytotoxic effect in the present invention. The three cell lines, i.e., the 1B-4R cells, the 1B-4RL cells, and the KAH5RL cells have been disclosed in WO 2010/026965 A1. The AH1R cells may be produced with reference to Mori K et al., BBRC, 371:104-109, 2008 and WO 2010/026965 A1. In addition, all the HCV strains belong to genotype 1b.
In the measurement of the renilla luciferase activity and the measurement by the WST-1 method, experiments were performed in three wells independent of each other, and their means and standard deviation were calculated.
After 24 hours, N-89 was added so as to achieve concentrations of 20 μM, a 2-fold dilution series from 20 μM (10, 5, 2.5, 1.3, 0.63, and 0.31 μM), and 0, or N-251 was added so as to achieve concentrations of 10 μM, a 2-fold dilution series from 10 μM (5, 2.5, 1.3, 0.63, 0.31, and 0.16 μM), and 0.
The cytotoxic effect of artemisinin was examined using OR6 and ORL8 cells and the CC50 values were calculated. […]

[7] = Cytotoxic effect, WST-1 cell proliferation assay in KAH5RL cells; format: cell-based, human; details: human; KAH5RL cells, 72 hours, WST-1
Description: (§4) The concentrations of N-89 and N-251 were the same as the concentrations used for the measurement of the luciferase activity, and the WST-1 cell proliferation assay was performed 72 hours after the addition.

[8] = test system: KAH5RL cells; assay: as above; format: cell-based, human; details: KAH5RL vs ORL8
Description: as §4

[9] = test system: 1B-4RL cells; assay: Cytotoxic effect, WST-1 cell proliferation assay in 1B-4RL cells; format: cell-based, human; details: 72 hours
Description: as §3
N-89 was added at the concentrations used for the measurement of the luciferase activity, and N-251 was added so as to achieve concentrations of 2 μM, a 2-fold dilution series from 2 μM (1, 0.5, 0.25, 0.13, 0.06, and 0.03 μM), and 0. The WST-1 cell proliferation assay was performed 72 hours after the addition.

Row | SMILES | CC50 at 72 h [1] [nM] | HCV core protein and NS5B in treated cells (Western blot) ([2]; ORL8 cells treated with N-89 1 μM, added six times, Day 26) | treated cells cultured in medium in the presence of G418 (CBB staining) ([2]; ORL8 cells, N-89 1 μM, G418 0.3 mg/mL) | production of cured cells ([2]; ORL8 cells, N-89 1 μM, added six times) | production of cured cells [3] | production of cured cells [4] | influence of KNO3 or NaClO4 in combination on the anti-HCV activity [5] | CC50 [6] [nM] | CC50 at 72 h [7] [nM] | CC50 fold higher in KAH5RL cells than in ORL8 cells [8] | CC50 [9] [nM]
1 | C1CCCCCC2(CCCCC1)OOCCCOO2 [N-89, 1,2,6,7-tetraoxaspiro[7,11]nonadecane] | ~500 | none of a core protein and NS5B was detected | all killed | cured cells were able to be produced | cured cells were able to be produced | cured cells were able to be produced | no influence | – | – | – | –
2 | OCCCCCCC1COOC2(CCCCCCCCCCC2)OOC1 [N-251, 6-(1,2,6,7-tetraoxaspiro[7,11]nonadec-4-yl)] | – | – | – | – | – | – | – | 3000 | 3200 | about 2.5 fold | 1900

From patent publication US9289411B2, “Anti-HCV agent” (NATIONAL UNIVERSITY CORPORATION OKAYAMA UNIVERSITY, priority 2011, dated 2016)
